# Like-named read-outs stand apart in the source and are kept apart here.
# Target: T1, G1 APOL1 (Homo sapiens, UniProt O14791, I384M/S342G)
# T1 construct: expressed in transfected cells
# T1 sequence (O14791 28-398 S342G/I384M): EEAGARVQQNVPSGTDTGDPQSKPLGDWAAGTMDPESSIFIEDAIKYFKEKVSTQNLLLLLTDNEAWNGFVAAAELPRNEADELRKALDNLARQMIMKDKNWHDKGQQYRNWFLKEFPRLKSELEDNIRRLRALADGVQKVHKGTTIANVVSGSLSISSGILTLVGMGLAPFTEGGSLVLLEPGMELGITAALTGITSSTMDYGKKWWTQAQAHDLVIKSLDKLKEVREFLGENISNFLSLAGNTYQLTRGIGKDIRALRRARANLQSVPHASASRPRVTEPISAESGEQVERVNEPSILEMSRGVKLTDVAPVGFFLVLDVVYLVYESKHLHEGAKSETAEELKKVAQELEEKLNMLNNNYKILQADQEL
# Assay: Acute APOL1 Thallium Assay with inducible stable clones of HEK 293 cells
# Type: cell-based
# Conditions: HEK 293 T-Rex inducible stable clone expressing G1 APOL1
# From the text: Acute APOL1 Thallium Assay with Inducible Stable Clones of HEK 293 Cells
# Apolipoprotein L1 (APOL1) proteins form potassium-permeable cation pores in the plasma membrane. APOL1 risk variants (G1 and G2) induce greater potassium flux than G0 in HEK293 cells. This assay exploits the permeability of thallium (T1+) through ligand-gated potassium channels. The dye produces a bright fluorescent signal upon binding to T1+ conducted through potassium channels. The intensity of the T1+ signal is proportional to the number of potassium channels in the open state. Therefore, it provides a functional indication of the potassium channel activities. During the initial dye-loading step, the T1+ indicator dye as an acetoxymethyl (AM) ester enters the cells through passive diffusion. Cytoplasm esterases cleave the AM ester and relieve its active thallium-sensitive form. The cells are then stimulated with T1+. The increase of fluorescence in the assay represents the influx of T1+ into the cell specifically through the potassium channel (i.e. through APOL1 pores), providing a functional measurement of potassium channel/pore activity. The Thallium assay is conducted with cells expressing G1 APOL1.
# APOL1 Cell Line (HEK T-Rex Stable Inducible Cell Line)
# • HEK T-Rex System • Tetracycline (Tet) inducible mammalian expression system. • Stably express the Tet repressor to regulate transcription. • Expression under the full-length CMV promoter. • APOL1 stable inducible cell line Clone used: G1 DC3.25 Tissue Culture Media Cell Culture Medium • DMEM+10% FBS+P/S+5 μg/mL blasticidin+1 μg/mL puromycin. • 500 mL DMEM+55 mL FBS+5 mL P/S+280 μL blasticidin S HCl (10 mg/mL)+56 μL puromycin (10 mg/mL). Cell Assay Medium • DMEM with 2% FBS+penicillin streptomycin. Reagents:
# Instruments and Equipment • Nuaire cell culture hood, Cat. No. 540-600 • 37° C./5% CO2 incubator link to robotic arm, Liconic: STX110 • Molecular Devices FLIPR^Tetra High throughput cellular screening system, Cat. No. FT0324, Molecular Devices • ThermoFisher MultiDrop 384, Cat. No. 5840300 • Biotek Microfill, Cat. No. ASF1000A-4145 • BioRad TC10 cell counter, Cat. No. 145-0010 Assay Procedures Cells Scaled Up from Frozen Vials • APOL1 G1 3.25 (HEK293 T-Rex) frozen vials: 5 million cells per vial • Step 1, Day 1: Defrost frozen vial into T-225. • Step 2, Day 5: (when 85% confluent): Split one T-225 at 3×10^6 cells per flask. • Step 3, Day 8: Splits cells to set up for the assay plates as described below. Cell Culture
# T-Rex APOL1 HEK cells are split twice per week to keep the confluence state below 85% of the culture flask surface area. Cells can be kept until passage 25.
# • DMEM high glucose+10% FBS, +P/S, +5 μg/mL blasticidin, +1 μg/mL puromycin. • 500 mL DMEM, +55 mL FBS, +5 mL P/S, +280 μL blasticidin 10 mg/mL, +56 μL Puromycin 10 mg/mL. Assay Media • Opti-MEM reduced serum medium from Invitrogen. Day 1 Preparation of Cell Assay Plates • Culture medium is removed from the x cm^2 T-flask by aspiration. • The cell monolayer is rinsed with PBS 1× at room temperature. PBS is removed by aspiration. • Cells are trypsinized using Trypsin. • The flasks are incubated at room temperature for 2-3 minutes. • Complete DMEM medium is then added. Cell suspension is then transferred to a 50 mL Falcon polypropylene tube. • Cells are then counted using a BioRad TC10 cell counter and the required amount of cells are centrifuged at 1200 RPM for 5 minutes. Required amount is 1.3×10^6 cells/mL APOL1 T-Rex HEK cells. • The pellet is suspended in the assay medium. • Using the MultiDrop, add 20 μL to each well (corresponds to 26000 cells total per well) of a 384-well black, transparent, flat bottom Poly-D coated plate. • Tetracycline as prepared in the following section is added to the cells before plating to induce APOL1 expression. • Plates are left at room temperature for 20 to 30 minutes before incubation at 37° C. and 5% CO2. […]
# [1] = read-out: Thallium Assay (IC50)
Structure (SMILES),IC50 [1] [nM],IC50 (Thallium Assay (IC50)) [nM]
"CN(C)C(=O)CCC(=O)NC[C@H]1C[C@@H](c2c(-c3ccc(F)cc3)[nH]c3c(F)cc(F)cc32)C1 [Compound 454, N^1-(((1s,3s)-3-(5,7-difluoro-2-(4-fluorophenyl)-1H-indol-3-yl)cyclobutyl)methyl)-N^4,N^4-dimethylsuccinamide]",> 1000,
CC(C)(C)OC(=O)NCC(=O)N[C@H]1C[C@@H](c2c(-c3ccc(F)cc3)[nH]c3c(F)cc(F)cc32)C1 [Compound 78],> 1000,
C[C@H](O)C(=O)NC[C@H]1C[C@@H](c2c(-c3ccc(F)cc3)[nH]c3c(F)cc(F)cc32)C1 [Compound 213],250 to 1000,
"O=C(CO)N[C@H]1C[C@H](c2c(-c3ccc(F)cc3)[nH]c3c(F)cc(F)cc32)C1 [Compound 429, N-((1r,3r)-3-(5,7-difluoro-2-(4-fluorophenyl)-1H-indol-3-yl)cyclobutyl)-2-hydroxyacetamide]",250 to 1000,
CC(F)(F)C(=O)N[C@H]1C[C@@H](c2c(-c3ccc(F)cc3)[nH]c3c(F)cc(F)cc32)C1 [Compound 68],250 to 1000,
O=C1CC(CNS(=O)(=O)NC[C@H]2C[C@H](c3c(-c4ccc(F)cc4)[nH]c4c(F)cc(F)cc43)C2)CN1 (stereo partly shown) [Compound 368],250 to 1000,
Cn1nccc1CC(=O)NC[C@H]1C[C@@H](c2c(-c3ccc(F)cc3)[nH]c3c(F)cc(F)cc32)C1 [Compound 322],> 1000,
Cc1cc(-c2[nH]c3c(F)cc(F)cc3c2C2CC(CN)C2)ccc1F (stereo not shown) [Compound 179],< 250,
O=C(NC[C@H]1C[C@H](c2c(-c3ccc(F)cc3)[nH]c3c(F)cc(F)cc32)C1)c1ccc[nH]c1=O [Compound 330],> 1000,
O=S(=O)(NC[C@H]1C[C@H](c2c(-c3ccc(F)cc3)[nH]c3c(F)cc(F)cc32)C1)NC(CO)CF (stereo partly shown) [Compound 346],250 to 1000,
O=C(NC[C@H]1C[C@@H](c2c(-c3ccc(F)cc3)[nH]c3c(F)cc(F)cc32)C1)C1(O)CC1 [Compound 234],> 1000,
O=C(CC1CC(F)(F)C1)NC[C@H]1C[C@@H](c2c(-c3ccc(F)cc3)[nH]c3c(F)cc(F)cc32)C1 [Compound 313],> 1000,
CC(C(=O)NC[C@H]1C[C@@H](c2c(-c3ccc(F)cc3)[nH]c3c(F)cc(F)cc32)C1)n1ccnc1 (stereo partly shown) [Compound 299],> 1000,
O=C(CC1COC1)N[C@H]1C[C@@H](c2c(-c3ccc(F)cc3)[nH]c3c(F)cc(F)cc32)C1 [Compound 50],> 1000,
"CS(=O)(=O)NC[C@H]1C[C@H](c2c(-c3ccc(F)cc3)[nH]c3c(F)cc(F)cc32)C1 [Compound 412, N-(((1r,3r)-3-(5,7-difluoro-2-(4-fluorophenyl)-1H-indol-3-yl)cyclobutyl)methyl)methanesulfonamide]",250 to 1000,
O=C(CC(=O)N1CCOCC1)NC[C@H]1C[C@@H](c2c(-c3ccc(F)cc3)[nH]c3c(F)cc(F)cc32)C1 [Compound 300],> 1000,
CC(=O)N1CC[C@H](C(=O)NC[C@H]2C[C@H](c3c(-c4ccc(F)cc4)[nH]c4c(F)cc(F)cc43)C2)C1 [Compound 274],> 1000,
OCCCNCC1CC(c2c(-c3ccc(F)cc3)[nH]c3c(F)cc(F)cc23)C1 (stereo not shown) [Compound 393],> 1000,
O=C1NCCC1NCC1CC(c2c(-c3ccc(F)cc3)[nH]c3c(F)cc(F)cc23)C1 (stereo not shown) [Compound 386],250 to 1000,
CS(=O)(=O)CCCC(=O)N[C@H]1C[C@H](c2c(-c3ccc(F)cc3)[nH]c3c(F)cc(F)cc32)C1 [Compound 99],> 1000,
"N[C@H]1C[C@H](c2c(-c3ccc(F)cc3)[nH]c3c(F)cc(F)cc32)C1 [Compound 89, (1r,3r)-3-[5,7-difluoro-2-(4-fluorophenyl)-1H-indol-3-yl]cyclobutanamine]",,< 250
O=C(NC[C@H]1C[C@@H](c2c(-c3ccc(F)cc3)[nH]c3c(F)cc(F)cc32)C1)C(O)C1CC1 (stereo partly shown) [Compound 247],> 1000,

# Now from value to compound:
IC50 [1] [nM],IC50 (Thallium Assay (IC50)) [nM],Structure (SMILES)
> 1000,,O=S(=O)(NC[C@H]1C[C@H](c2c(-c3ccc(F)cc3)[nH]c3c(F)cc(F)cc32)C1)c1n[nH]c2ncccc12 [Compound 419]
> 1000,,O=C(NC[C@H]1C[C@H](c2c(-c3ccc(F)cc3)[nH]c3c(F)cc(F)cc32)C1)[C@H]1CCCN1 [Compound 282]
250 to 1000,,"O=C(CO)N[C@H]1C[C@@H](c2c(-c3ccc(F)cc3)[nH]c3c(F)cc(F)cc32)C1 [Compound 29, N-((1s,3s)-3-(5,7-difluoro-2-(4-fluorophenyl)-1H-indol-3-yl)cyclobutyl)-2-hydroxyacetamide]"
> 1000,,NC(=O)C1(NS(=O)(=O)NC[C@H]2C[C@H](c3c(-c4ccc(F)cc4)[nH]c4c(F)cc(F)cc43)C2)CC1 [Compound 349]
> 1000,,O=C(CCN1CCCC1=O)N[C@H]1C[C@@H](c2c(-c3ccc(F)cc3)[nH]c3c(F)cc(F)cc32)C1 [Compound 48]
> 1000,,CC(NS(C)(=O)=O)C(=O)NC[C@H]1C[C@@H](c2c(-c3ccc(F)cc3)[nH]c3c(F)cc(F)cc32)C1 (mixture of isomers) [Compound 242]
250 to 1000,,C[C@@H](CO)NS(=O)(=O)NC[C@H]1C[C@H](c2c(-c3ccc(F)cc3)[nH]c3c(F)cc(F)cc32)C1 [Compound 338]
> 1000,,O=c1[nH]c2ccc(S(=O)(=O)NC[C@H]3C[C@H](c4c(-c5ccc(F)cc5)[nH]c5c(F)cc(F)cc54)C3)cc2[nH]1 [Compound 418]
> 1000,,O=S(=O)(N[C@H]1C[C@@H](c2c(-c3ccc(F)cc3)[nH]c3c(F)cc(F)cc32)C1)C1COC1 [Compound 83]
> 1000,,O=C1CC(C(=O)N[C@H]2C[C@@H](c3c(-c4ccc(F)cc4)[nH]c4c(F)cc(F)cc43)C2)CC(=O)N1 [Compound 70]
250 to 1000,,N#CCS(=O)(=O)NC[C@H]1C[C@H](c2c(-c3ccc(F)cc3)[nH]c3c(F)cc(F)cc32)C1 [Compound 414]
250 to 1000,,OC1CC(NCC2CC(c3c(-c4ccc(F)cc4)[nH]c4c(F)cc(F)cc34)C2)C1 (stereo not shown) [Compound 377]
> 1000,,CN1CCC(CC(=O)N[C@H]2C[C@H](c3c(-c4ccc(F)cc4)[nH]c4c(F)cc(F)cc43)C2)CC1 [Compound 117]
> 1000,,O=S(=O)(N[C@H]1C[C@H](c2c(-c3ccc(F)cc3)[nH]c3c(F)cc(F)cc32)C1)C1CCOCC1 [Compound 156]
> 1000,,CC(C)(CO)NCC1CC(c2c(-c3ccc(F)cc3)[nH]c3c(F)cc(F)cc23)C1 (stereo not shown) [Compound 407]
> 1000,,O=C(NC[C@H]1C[C@H](c2c(-c3ccc(F)cc3)[nH]c3c(F)cc(F)cc32)C1)c1ccc(=O)[nH]c1 [Compound 304]
250 to 1000,,O=C1NC(=O)C(CCS(=O)(=O)N[C@H]2C[C@H](c3c(-c4ccc(F)cc4)[nH]c4c(F)cc(F)cc43)C2)N1 (stereo partly shown) [Compound 151]
> 1000,,O=C1CC[C@H](C(=O)NC[C@H]2C[C@@H](c3c(-c4ccc(F)cc4)[nH]c4c(F)cc(F)cc43)C2)N1 [Compound 249]

# — patent US12281102B2, “Inhibitors of APOL1 and methods of using same” (Vertex Pharmaceuticals Incorporated, priority 2020, dated 2025)
